Data from paper PMC6085350, “Small molecule inhibitors of RAS-effector protein interactions derived using an intracellular antibody fragment” (Nature Communications, 2018).

Assays:
[1] = system: AKT phosphorylation (Ser473) in DLD-1 cells (KRAS^G13D); experiment: Biomarker phosphorylation assay, pAKT, DLD-1; assay type: cell-based, human; details: EGF 10 min
Protocol: (§1) Fig. 5 Abd-7 results on RAS-dependent signalling pathways and cell viability. a, b DLD-1 (a) or H358 (b) cells were serum-starved for 24 h, incubated in mono-layer with Abd-7 in a range from 2, 5, 10 and 20 μM for 3 h and stimulated with EGF 10 min. Proteins were extracted and separated by SDS-PAGE and transferred to membranes for Western analysis with anti-pAKT, anti-pERK, anti-pan AKT and anti-pan ERK. Anti-cyclophilin B antibody was the loading control. Signal was developed using standard ECL. c–e Effects of compounds Abd-2, Abd-4, Abd-5, Abd-6, and Abd-7 on the viability of human cancer cells lines was assessed for a 2-D culture of DLD-1 (mutant KRAS^G13D) cells and HT1080 cells (mutant NRAS^Q61K). The cells were treated with a dose range from 0 μM to 20 μ and incubated for 72 h when cell viability was assessed using CellTitreGlo. […] Each experiment was repeated at least three times (a, b) and four times (c, d). Where error bars are presented, they correspond to mean values ± SD of biological repeats
A total of 450,000 DLD1 or 640,000 H358 cells were seeded per well of a six well plate. Approximately, 20 h later, the medium was removed, the cells washed twice with PBS and DMEM without FBS was added and left for 24 h. The medium was removed and 2 ml of DMEM no FBS was added with the appropriate concentration of compound (DMSO, 2, 5, 10 or 20 μM) for 3 h. Cells were stimulated with EGF (50 ng/ml) for 10 min, washed once with PBS and directly lysed in SDS-Tris buffer (1% SDS, 10 mM Tris-HCl pH 7.4) supplemented with protease inhibitors (Sigma) and phosphatase inhibitors (Thermo-Fisher). Cell lysates were sonicated with a Branson Sonifier and the protein concentrations determined by using the Pierce BCA protein assay kit (Thermo-Fisher). Furthermore, 10 μg of protein were resolved on 10 or 12.5% SDS-PAGE and subsequently transferred onto a PVDF membrane (GE). The membrane was blocked (with 10% non-fat milk (Sigma) or 10% BSA (Sigma) in TBS-0.1% Tween20) and incubated overnight with primary antibody at 4 °C. […]

[2] = system: ERK1/2 phosphorylation in H358 cells (KRAS^G12C); experiment: Biomarker phosphorylation assay, pERK, H358; assay type: cell-based, human; details: H358, 2-20 μM, 3 h, EGF 10 min
Protocol: as §1
A total of 450,000 DLD1 or 640,000 H358 cells were seeded per well of a six well plate. Approximately, 20 h later, the medium was removed, the cells washed twice with PBS and DMEM without FBS was added and left for 24 h. […] Cell lysates were sonicated with a Branson Sonifier and the protein concentrations determined by using the Pierce BCA protein assay kit (Thermo-Fisher). […]

[3] = Caco-2 cell permeability assay; assay type: in vitro ADME; details: human
EGFR = target: T1, EGFR (Homo sapiens, UniProt P00533); experiment: Kinase panel (KinaseProfiler); assay type: biochemical; details: 10μM
T1 construct: purchased Eurofins Pharma Discovery Services (KinaseProfiler)
T1 sequence (P00533 25-1210): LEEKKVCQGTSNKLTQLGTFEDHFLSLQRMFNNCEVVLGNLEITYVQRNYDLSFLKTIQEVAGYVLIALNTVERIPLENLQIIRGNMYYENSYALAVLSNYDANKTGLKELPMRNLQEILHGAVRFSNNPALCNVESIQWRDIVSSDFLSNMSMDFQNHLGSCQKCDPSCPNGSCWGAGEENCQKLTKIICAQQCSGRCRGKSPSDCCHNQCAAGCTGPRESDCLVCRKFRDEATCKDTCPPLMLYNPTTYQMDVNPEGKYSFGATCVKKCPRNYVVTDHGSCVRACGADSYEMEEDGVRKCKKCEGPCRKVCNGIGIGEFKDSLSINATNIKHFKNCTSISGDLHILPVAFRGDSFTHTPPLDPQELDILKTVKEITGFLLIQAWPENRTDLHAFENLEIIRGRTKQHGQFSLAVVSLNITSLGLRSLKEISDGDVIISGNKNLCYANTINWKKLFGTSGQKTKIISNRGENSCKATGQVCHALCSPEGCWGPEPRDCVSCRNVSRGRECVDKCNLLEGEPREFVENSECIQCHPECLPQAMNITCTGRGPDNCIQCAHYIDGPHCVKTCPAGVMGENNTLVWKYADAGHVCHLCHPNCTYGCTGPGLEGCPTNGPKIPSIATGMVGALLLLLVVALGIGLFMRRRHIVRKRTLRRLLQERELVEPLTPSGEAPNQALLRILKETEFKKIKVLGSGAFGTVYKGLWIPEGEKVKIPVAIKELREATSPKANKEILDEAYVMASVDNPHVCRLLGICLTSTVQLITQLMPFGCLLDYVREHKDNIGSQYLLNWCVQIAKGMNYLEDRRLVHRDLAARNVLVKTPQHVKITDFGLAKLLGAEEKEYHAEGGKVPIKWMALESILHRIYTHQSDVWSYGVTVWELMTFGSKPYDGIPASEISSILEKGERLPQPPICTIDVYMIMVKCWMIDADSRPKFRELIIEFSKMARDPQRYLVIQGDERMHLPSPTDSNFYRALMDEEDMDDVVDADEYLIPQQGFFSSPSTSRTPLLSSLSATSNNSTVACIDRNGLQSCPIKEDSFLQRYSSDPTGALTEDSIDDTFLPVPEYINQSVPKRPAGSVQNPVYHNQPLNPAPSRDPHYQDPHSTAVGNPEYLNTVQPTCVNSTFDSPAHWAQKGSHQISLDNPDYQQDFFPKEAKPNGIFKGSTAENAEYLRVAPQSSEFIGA
Protocol: (§2) Experiments were performed by Eurofins Pharma Discovery Services. The KinaseProfiler™ assay protocol guide can be downloaded from their website: www.eurofins.com/discoveryservices. The guide contains information on the buffer conditions, substrate and reference inhibitor blank used for each kinase.
(§3) Supplementary Table 3. Assessment of potential interaction of Abd-7 with a human kinase
(§4) Kinase % kinase activity in
(§5) A panel of 14 Kinases (relevant to the RAS pathway) has been screened against Abd-7
(§6) (10μM) and the kinase activity was measured. […] of activity was observe for all
(§7) function of the selected and RAS relevant kinase proteins.

MEK1 = target: T2, MEK1 (Homo sapiens, UniProt Q02750); experiment: Kinase panel (KinaseProfiler); assay type: biochemical; details: MEK1, 10μM
T2 construct: purchased Eurofins Pharma Discovery Services (KinaseProfiler)
T2 sequence (Q02750 whole entry): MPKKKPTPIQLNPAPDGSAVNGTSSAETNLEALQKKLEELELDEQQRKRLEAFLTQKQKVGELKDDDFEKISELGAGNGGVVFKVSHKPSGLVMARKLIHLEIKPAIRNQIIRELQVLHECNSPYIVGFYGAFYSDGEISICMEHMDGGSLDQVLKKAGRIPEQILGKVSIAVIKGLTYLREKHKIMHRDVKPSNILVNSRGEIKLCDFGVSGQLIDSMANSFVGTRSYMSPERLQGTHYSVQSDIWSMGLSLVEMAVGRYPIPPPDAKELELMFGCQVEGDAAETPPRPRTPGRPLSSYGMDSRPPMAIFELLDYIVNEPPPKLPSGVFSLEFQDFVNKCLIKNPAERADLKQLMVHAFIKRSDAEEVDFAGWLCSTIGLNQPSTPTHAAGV
Protocol: as §2, §3, §4, §5, §6, §7

PKBγ = target: T3, PKBγ (Homo sapiens, UniProt Q9Y243); experiment: Kinase panel (KinaseProfiler); assay type: biochemical; details: 10μM
T3 construct: purchased Eurofins Pharma Discovery Services (KinaseProfiler)
T3 sequence (Q9Y243 whole entry): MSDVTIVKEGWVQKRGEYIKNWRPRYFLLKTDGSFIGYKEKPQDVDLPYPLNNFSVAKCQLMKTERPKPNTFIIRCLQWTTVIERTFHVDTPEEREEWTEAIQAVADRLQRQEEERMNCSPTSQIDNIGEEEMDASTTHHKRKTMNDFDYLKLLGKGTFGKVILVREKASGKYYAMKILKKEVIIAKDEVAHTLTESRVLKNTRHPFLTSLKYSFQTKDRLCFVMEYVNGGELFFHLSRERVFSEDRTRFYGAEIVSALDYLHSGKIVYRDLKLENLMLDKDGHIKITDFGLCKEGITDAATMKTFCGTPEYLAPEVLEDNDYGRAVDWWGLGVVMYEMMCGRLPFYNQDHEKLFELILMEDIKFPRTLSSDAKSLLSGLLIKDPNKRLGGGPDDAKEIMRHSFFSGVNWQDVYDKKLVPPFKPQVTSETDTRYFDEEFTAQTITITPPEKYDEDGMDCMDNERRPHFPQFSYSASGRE
Protocol: as §2, §3, §4, §5, §6, §7

KRAS-GDP = experiment: waterLOGSY NMR binding to GDP form
Protocol: The waterLOGSY NMR method[35] was used to measure RAS ligand interaction. WaterLOGSY experiments were conducted at a ^1H frequency of 600 MHz using a Bruker Avance spectrometer equipped with a BBI probe. All experiments were conducted at 298 K, 3 mm diameter NMR tubes with a sample final volume of 200 µl was used in all experiments. Solutions were buffered using an H2O 10 mM PBS, 5 mM MgCl2 buffer corrected to pH 7.4. The sample preparation is exemplified as follows, the compound (10 µl of a […] solution in DMSO-d6) was added to an eppendorf before sequential addition of the H2O PBS buffer (163.6 µl), D2O (20 µl), and protein (6.4 µl, 311.8 µM). The resulting solution was spun to ensure full mixing and transferred to a 3 mm NMR tube before running the experiment. For a competition experiment using Y6-scFv or VH, the preparation was carried out in a similar manner; the compound (10 µl of a 10 mM solution in DMSO-d6) was added to an eppendorf before sequential addition of the H2O PBS buffer (146.4 µl), D2O (20 µl), protein (6.4 µl, 311.8 µM) and Y6-ScFv (17.2 µl, 116.6 µM) with a ratio of 5.5:1:1. The resulting solution was spun and transferred to a 3 mm NMR tube before the run. […]
Supplementary Figure 3: Abd-2 WaterLOGSY NMR with and without anti RAS-scFV Abd-2 was analyzed by waterLOGSY. […]

SMILES | inhibition of AKT phosphorylation ([1]; DLD-1, 20 μM, 3 h) | concentration at which inhibition of AKT phosphorylation initiates ([1]; DLD-1, starved 24 h, 3 h compound, Western) | inhibition at 10 µM ([1]; Homo sapiens, DLD-1, 10 μM, 3 h) | inhibition of ERK1/2 phosphorylation [2] | Papp A→B [3] | Papp B→A [3] | % kinase activity in the presence of Abd-7 (EGFR) | % kinase activity in the presence of Abd-7 (MEK1) | % kinase activity in the presence of Abd-7 (PKBγ) | binding to KRAS-GDP (waterLOGSY) (KRAS-GDP)
COc1nc(-c2cccc3c2OCCO3)ccc1Nc1ccc(CN(C)C)cc1 [Abd-7] | complete inhibition | 2 µM | > 50% | diminution of pERK levels | 7.03 ×10⁻⁶ cm/s | 8.46 ×10⁻⁶ cm/s | 93% | 105% | 103% | –
O=C(NCC1COc2ccccc2O1)c1ccco1 (stereo not shown) [Abd-2] | – | – | – | – | – | – | – | – | – | poor binding
